In ChEMBL document CHEMBL1155009, “7-Aminopyrazolo[1,5-a]pyrimidines as potent multitargeted receptor tyrosine kinase inhibitors” (J Med Chem, 2008):

Key:
[1] = biological target: T1, Vascular endothelial growth factor receptor 2 (Homo sapiens, UniProt P35968)
Description: Inhibition of KDR by HTRF assay

Mus musculus [2] = experiment: Inhibition of estradiol-induced uterine edema in BALB/c mouse at 10 mg/kg, po administered 30 mins prior to 17-beta-estradiol challenge after 2 hrs; settings: read-out: INH
[3] = biological target: T1, Vascular endothelial growth factor receptor 2; experiment: Inhibition of human KDR phosphorylation expressed in mouse NIH3T3 cells by ELISA; assay type: cell-based
Mus musculus [4] = experiment: Volume of distribution in CD1 mouse at 3 mg/kg, iv; assay type: ADME, organism-based; parameters: dose 3 mg/kg, route intravenous; settings: in vivo
[5] = AUC in CD1 mouse at 3 mg/kg, iv; assay type: ADME, organism-based; parameters: dose 3 mg/kg, route intravenous; settings: plasma
[6] = AUC in CD1 mouse at 10 mg/kg, po; assay type: ADME, organism-based; parameters: dose 10 mg/kg, route oral; settings: plasma
[7] = Oral bioavailability in CD1 mouse at 10 mg/kg; assay type: ADME, organism-based; settings: in vivo
[8] = Cmax in CD1 mouse at 10 mg/kg, po; assay type: ADME, organism-based; parameters: dose 10 mg/kg, route oral; settings: in vivo
Mus musculus [9] = experiment: Half life in CD1 mouse at 3 mg/kg, iv; assay type: ADME, organism-based; parameters: dose 3 mg/kg, route intravenous; settings: in vivo

T1 sequence (P35968 whole entry): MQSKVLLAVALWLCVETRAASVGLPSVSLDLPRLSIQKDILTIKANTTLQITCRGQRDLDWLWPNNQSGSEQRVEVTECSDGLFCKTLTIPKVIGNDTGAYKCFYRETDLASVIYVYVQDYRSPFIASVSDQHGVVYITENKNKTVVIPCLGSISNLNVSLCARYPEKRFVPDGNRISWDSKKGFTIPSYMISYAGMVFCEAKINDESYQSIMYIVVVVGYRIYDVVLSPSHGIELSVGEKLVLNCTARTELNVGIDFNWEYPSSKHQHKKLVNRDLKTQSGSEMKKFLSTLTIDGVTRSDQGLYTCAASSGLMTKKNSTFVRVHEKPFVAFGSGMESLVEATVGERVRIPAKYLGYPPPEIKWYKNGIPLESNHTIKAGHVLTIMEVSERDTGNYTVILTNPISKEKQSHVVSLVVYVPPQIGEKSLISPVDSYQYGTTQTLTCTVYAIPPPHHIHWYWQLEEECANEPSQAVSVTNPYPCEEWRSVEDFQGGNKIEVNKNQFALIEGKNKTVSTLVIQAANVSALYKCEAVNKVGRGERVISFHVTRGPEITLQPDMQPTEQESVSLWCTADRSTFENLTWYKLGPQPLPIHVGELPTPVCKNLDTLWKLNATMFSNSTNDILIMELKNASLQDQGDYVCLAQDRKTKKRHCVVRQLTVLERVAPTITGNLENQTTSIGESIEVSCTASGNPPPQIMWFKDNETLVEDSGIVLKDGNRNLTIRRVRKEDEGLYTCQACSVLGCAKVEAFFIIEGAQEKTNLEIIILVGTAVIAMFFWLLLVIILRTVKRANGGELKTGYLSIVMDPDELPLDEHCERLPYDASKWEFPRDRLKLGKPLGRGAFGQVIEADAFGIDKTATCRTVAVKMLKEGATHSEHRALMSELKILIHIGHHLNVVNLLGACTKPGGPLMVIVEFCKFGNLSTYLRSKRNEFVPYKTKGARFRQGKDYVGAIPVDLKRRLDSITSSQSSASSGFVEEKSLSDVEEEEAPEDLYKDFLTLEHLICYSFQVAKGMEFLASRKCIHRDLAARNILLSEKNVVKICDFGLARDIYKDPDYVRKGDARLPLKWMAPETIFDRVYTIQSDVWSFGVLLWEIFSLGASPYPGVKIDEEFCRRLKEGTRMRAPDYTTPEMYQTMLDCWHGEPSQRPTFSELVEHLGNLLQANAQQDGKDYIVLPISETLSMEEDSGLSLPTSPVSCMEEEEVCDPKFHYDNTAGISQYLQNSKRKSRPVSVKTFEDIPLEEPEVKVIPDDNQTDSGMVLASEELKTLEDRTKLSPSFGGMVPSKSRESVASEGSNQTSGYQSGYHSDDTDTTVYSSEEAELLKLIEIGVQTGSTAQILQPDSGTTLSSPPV

Compound	IC50 [1] [nM]	other results
COc1ccc(-c2cnc3c(Br)cnn3c2N)cc1	> 12500	
Cn1cc(-c2ccn3c(N)c(-c4ccc(NC(=O)Nc5cccc(Cl)c5)cc4)cnc23)cn1		inhibition in vivo at 10 mg/kg (Mus musculus [2]): 27%
Cn1cc(-c2ccn3c(N)c(-c4ccc(NC(=O)Nc5ccc(F)c(C(F)(F)F)c5)cc4)cnc23)cn1		inhibition in vivo at 10 mg/kg (Mus musculus [2]): < 15%
Cc1ccccc1NC(=O)Nc1ccc(-c2cnc3c(Br)cnn3c2N)cc1	> 12500	
Cc1ccc(NC(=O)Nc2ccc(-c3cnc4c(Br)cnn4c3N)cc2)cc1	810	
Cc1cccc(NC(=O)Nc2ccc(-c3cnc4c(C(=O)O)cnn4c3N)cc2)c1	2000	
Nc1ccc(-c2cnc3c(Br)cnn3c2N)cc1	> 12500	
Cc1cccc(NC(=O)Nc2cccc(-c3cnc4ccnn4c3N)c2)c1	6600	
Cn1cc(-c2ccn3c(N)c(-c4ccc(NC(=O)Nc5cc(C(F)(F)F)ccc5F)cc4)cnc23)cn1		inhibition in vivo at 10 mg/kg (Mus musculus [2]): 45%
Nc1c(-c2ccc(NC(=O)Nc3ccccc3)cc2)cnc2c(Br)cnn12	1600	
Cc1cccc(NC(=S)Nc2ccc(-c3cnc4ccnn4c3N)cc2)c1	10000	

More lines, main results first:

IC50 [1] [nM]	Compound	other results
> 12500	Nc1c(-c2ccccc2)cnc2c(Br)cnn12	
44	Nc1c(-c2ccc(NC(=O)Nc3cccc(Cl)c3)cc2)cnc2ccnn12	
74	Cc1ccc(F)c(NC(=O)Nc2ccc(-c3cnc4ccnn4c3N)cc2)c1	
6100	COc1ccc(-c2cnc3c(-c4ccsc4)cnn3c2N)cc1	
930	Cc1cccc(NC(=O)Nc2ccc(-c3cnc4c(C#N)cnn4c3N)cc2)c1	
500	CCN(CC)CCNC(=O)c1cnn2c(N)c(-c3ccc(NC(=O)Nc4cccc(C)c4)cc3)cnc12	
3500	Cc1cccc(NC(=O)Nc2ccc(-c3cnc4cc(C)nn4c3N)cc2)c1	
> 12500	Cc1cccc(NC(=O)Nc2ccc(-c3cnc4cc(-c5ccccc5)nn4c3N)cc2)c1	
> 12500	Cc1cccc(NC(=O)Nc2ccc(-c3cnc4c(Br)cnn4c3)cc2)c1	
790	Cc1cccc(NC(=O)Nc2ccc(-c3cnc4c(C(=O)N5CCN(C)CC5)cnn4c3N)cc2)c1	
4	Cc1cccc(NC(=O)Nc2ccc(-c3cnc4c(-c5cnn(C)c5)cnn4c3N)cc2)c1	IC50 [3]: 0.7 nM; inhibition in vivo at 10 mg/kg (Mus musculus [2]): 49%; Vd (Mus musculus [4]): 1.4 L/kg; AUC [5]: 1800 ng·h/mL; AUC [6]: 810 ng·h/mL; bioavailability [7]: 14%; Cmax [8]: 360 nM; t1/2 (Mus musculus [9]): 15 min
> 12500	Nc1c(-c2ccc(NC(=O)c3ccccc3)cc2)cnc2c(Br)cnn12	
100	CNC(=O)c1cnn2c(N)c(-c3ccc(NC(=O)Nc4cccc(C)c4)cc3)cnc12	
